ChEMBL document CHEMBL3397020, “Synthesis of benzopentathiepin analogs and their evaluation as inhibitors of the phosphatase STEP” (Bioorg Med Chem Lett, 2015)

Experiments:
[1] = molecular target: T1, Tyrosine-protein phosphatase non-receptor type 5 (Homo sapiens, UniProt P54829); experiment: Inhibition of STEP (unknown origin) in absence of GSH by p-nitrophenyl phosphate hydrolysis assay
T1 sequence (P54829 whole entry): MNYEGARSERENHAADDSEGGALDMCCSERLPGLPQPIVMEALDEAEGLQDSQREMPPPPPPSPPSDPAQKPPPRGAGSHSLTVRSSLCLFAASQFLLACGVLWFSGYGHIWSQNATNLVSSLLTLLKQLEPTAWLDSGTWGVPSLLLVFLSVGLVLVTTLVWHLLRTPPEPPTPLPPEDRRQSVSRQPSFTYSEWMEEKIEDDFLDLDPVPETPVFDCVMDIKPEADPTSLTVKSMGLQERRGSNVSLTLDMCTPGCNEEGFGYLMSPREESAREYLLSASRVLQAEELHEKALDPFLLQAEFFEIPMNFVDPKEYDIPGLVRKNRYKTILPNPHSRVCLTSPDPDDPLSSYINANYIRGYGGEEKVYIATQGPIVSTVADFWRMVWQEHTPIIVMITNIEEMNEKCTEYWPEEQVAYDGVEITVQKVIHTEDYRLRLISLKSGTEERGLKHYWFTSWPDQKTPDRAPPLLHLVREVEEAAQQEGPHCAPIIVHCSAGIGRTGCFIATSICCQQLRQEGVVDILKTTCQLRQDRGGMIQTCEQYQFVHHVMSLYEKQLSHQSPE

[2] = molecular target: T1, Tyrosine-protein phosphatase non-receptor type 5; experiment: Inhibition of STEP (unknown origin) pre-incubated for 10 mins before addition of p-nitrophenyl phosphate substrate in presence of 1 mM GSH
[3] = molecular target: T2, Tyrosine-protein phosphatase non-receptor type 5 (Homo sapiens) (UniProt P54829)
T2 sequence (whole entry): T1 sequence (P54829 whole entry)
Description: Inhibition of STEP (unknown origin) assessed as second-order rate constant for enzyme inactivation in absence of GSH by p-nitrophenyl phosphate hydrolysis assay

[4] = molecular target: T1, Tyrosine-protein phosphatase non-receptor type 5; experiment: Inhibition of STEP (unknown origin) pre-incubated for 10 mins before addition of p-nitrophenyl phosphate substrate in absence of GSH

Ki [1]: 235 nM
IC50 [2]: 15000 nM
Kinact [3]: 0.0378 s⁻¹
IC50 [4]: 24 nM
SMILES: O=C(Nc1cc(C(F)(F)F)cc2c1SSSSS2)C(F)(F)F
